In PubChem BioAssay (NCI) one finds GI50 and TGI data, which are given here for 6 compounds.

SMILES strings stand for the structures.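 All cell lines were grown in 96-well plates and treated with compound for 48 hours. GI50 marks 50% less growth. Definition used: TGI = concentration required for complete inhibition of growth.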

Some test systems named below: HOP-62 NSCLC; NCI-H522 lung; HT29 colon; SN12C renal; SF-295 CNS; SW-620 colon; HCC-2998 colon; CCRF-CEM leukemia; CAKI-1 renal; PC-3 prostate.
Common to all, as to assay: growth of human tumour cells (NCI), 48 h

For the compound `O=C(Nc1cccc(Cl)c1)Nn1cnnc1`, the GI50 in the test with HOP-62 NSCLC, with NCI-H522 lung, with HT29 colon, with SN12C renal, with SF-295 CNS and in the test with SW-620 colon was over 50000 nM in each case. Moreover, the GI50 in the test on HCC-2998 colon, with CCRF-CEM leukemia, in the test with CAKI-1 renal and in the test on PC-3 prostate was over 50000 nM in each case. The TGI in the test with HOP-62 NSCLC, in the test on NCI-H522 lung, in the test with HT29 colon, in the test on SN12C renal, in the test on SF-295 CNS and in the test with SW-620 colon was over 100000 nM in each case. The TGI with HCC-2998 colon, with CCRF-CEM leukemia, with CAKI-1 renal and in the test with PC-3 prostate was over 100000 nM throughout.

With `C1CSCCCSCCCSCCCSCCCSCCCSCCCSCCCSC1`, the TGI in the test with HOP-62 NSCLC, with NCI-H522 lung, in the test with HT29 colon, in the test on SN12C renal, in the test on SF-295 CNS and in the test on SW-620 colon was over 100000 nM in each case. Besides, the TGI in the test on HCC-2998 colon, with CCRF-CEM leukemia, with CAKI-1 renal and in the test with PC-3 prostate was over 100000 nM in each case.

For `O=C(c1ccc2ccccc2c1)c1c(C(F)(F)F)n([O-])c2ccc(C(F)(F)F)cc2[n+]1=O`, the GI50 in the test on HOP-62 NSCLC is 1950 nM; in the test with NCI-H522 lung it was 505 nM; in the test on HT29 colon, 439 nM; with SN12C renal, 1390 nM; in the test with SF-295 CNS it was 1290 nM; in the test with SW-620 colon, 514 nM. Besides, the GI50 in the test with HCC-2998 colon was 1690 nM; in the test on CCRF-CEM leukemia, 181 nM; in the test on CAKI-1 renal it was 280 nM; with PC-3 prostate, 407 nM. Also, the TGI with HOP-62 NSCLC amounted to 3580 nM; in the test on NCI-H522 lung, 1090 nM; in the test with HT29 colon, 1430 nM; with SN12C renal it was 3300 nM; in the test with SF-295 CNS, 2740 nM; in the test on SW-620 colon it was 1110 nM. The TGI with HCC-2998 colon was found to be 3270 nM; in the test with CCRF-CEM leukemia, 547 nM; in the test on CAKI-1 renal, 730 nM; with PC-3 prostate, 1420 nM.

Take `CCSC1=NC2C(N(CC)C(=O)N2CC)N1/N=C/C=C/c1ccccc1[N+](=O)[O-]` (stereo not given): the GI50 with HOP-62 NSCLC was 313 nM; in the test with NCI-H522 lung, 39.5 nM; in the test with HT29 colon, 160 nM; in the test with SN12C renal, 401 nM; in the test with SF-295 CNS it was 61.2 nM; with SW-620 colon it was 186 nM. Besides, the GI50 in the test on HCC-2998 colon was 362 nM; in the test on CCRF-CEM leukemia, 331 nM; in the test with CAKI-1 renal it was 64.7 nM; with PC-3 prostate, 187 nM. Also, the TGI is over 100000 nM in the test with HOP-62 NSCLC; 46200 nM with NCI-H522 lung; over 100000 nM in the test with HT29 colon; over 100000 nM in the test on SN12C renal; over 100000 nM with SF-295 CNS; over 100000 nM in the test on SW-620 colon. Moreover, the TGI with HCC-2998 colon was 39600 nM; in the test with CCRF-CEM leukemia, over 100000 nM; with CAKI-1 renal, over 100000 nM; with PC-3 prostate, over 100000 nM.

Regarding `O=C1/C(=C/c2ccc([N+](=O)[O-])cc2)CN(C(=O)CCN2CCC(=NO)CC2)C/C1=C\c1ccc([N+](=O)[O-])cc1`, the GI50 was 1910 nM in the test on HOP-62 NSCLC; 860 nM in the test on NCI-H522 lung; 477 nM with HT29 colon; 677 nM in the test on SN12C renal; 2090 nM in the test on SF-295 CNS; 311 nM in the test on SW-620 colon. Moreover, the GI50 with HCC-2998 colon is 1000 nM; with CCRF-CEM leukemia, 534 nM; in the test on CAKI-1 renal it was 756 nM; with PC-3 prostate, 583 nM. The TGI was 6970 nM in the test on HOP-62 NSCLC; 3280 nM in the test with NCI-H522 lung; 1930 nM in the test on HT29 colon; 2510 nM in the test on SN12C renal; 5390 nM in the test on SF-295 CNS; 982 nM with SW-620 colon. Besides, the TGI with HCC-2998 colon amounted to 2620 nM; in the test on CCRF-CEM leukemia, 9930 nM; in the test with CAKI-1 renal, 2390 nM; with PC-3 prostate it was 2380 nM.

Turning to `CCOC(=O)Oc1c(OC)cc(C(=O)c2ccc(OC)c(O)c2OC)cc1OC`, the GI50 was 962 nM in the test on HOP-62 NSCLC; 311 nM with NCI-H522 lung; 3130 nM in the test on HT29 colon; 2790 nM with SN12C renal; 524 nM with SF-295 CNS; 489 nM in the test on SW-620 colon. The GI50 with HCC-2998 colon is 2310 nM; in the test on CCRF-CEM leukemia, 410 nM; with CAKI-1 renal, 1810 nM; with PC-3 prostate, 562 nM. Besides, the TGI in the test on HOP-62 NSCLC was over 100000 nM; in the test on NCI-H522 lung it was 1990 nM; in the test with HT29 colon it was 22800 nM; with SN12C renal, over 100000 nM; in the test with SF-295 CNS it was 49700 nM; with SW-620 colon, over 100000 nM. For the same compound, the TGI in the test on HCC-2998 colon, in the test on CCRF-CEM leukemia, in the test on CAKI-1 renal and in the test on PC-3 prostate was over 100000 nM throughout.
